Experimental data taken from publication PMC11153306, “Unraveling the efficacy of verbascoside in thwarting MRSA pathogenicity by targeting sortase A” (Applied Microbiology and Biotechnology, 2024).

Molecular target: T1, sortase A (SrtA) (Staphylococcus aureus, UniProt Q2FV99)
T1 construct: 6 × His recombinant SrtA from pET28a::srtA
Test: intrinsic fluorescence quenching (Stern-Volmer, KA); supported by FRET inhibition of purified SrtA (IC50 […]) and reversibility by dilution
Assay type: binding
Conditions: read-out: intrinsic fluorescence quenching (Stern-Volmer, KA); supported by FRET inhibitio (converted)
Text: This indicated a significant interaction between verbascoside and SrtA

T1 sequence (Q2FV99 whole entry): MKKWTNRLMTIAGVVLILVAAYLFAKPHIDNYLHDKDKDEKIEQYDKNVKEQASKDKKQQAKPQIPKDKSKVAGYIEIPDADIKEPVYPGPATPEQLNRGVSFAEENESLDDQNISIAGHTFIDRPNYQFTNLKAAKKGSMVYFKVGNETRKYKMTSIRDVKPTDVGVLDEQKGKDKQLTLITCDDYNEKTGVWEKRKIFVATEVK

`C[C@@H]1O[C@@H](O[C@@H]2[C@@H](O)[C@H](OCCc3ccc(O)c(O)c3)O[C@H](CO)[C@H]2OC(=O)/C=C/c2ccc(O)c(O)c2)[C@H](O)[C@H](O)[C@H]1O` [verbascoside] gave a Kd of 41 µM.
